Experiments:
[1] = First acid dissociation constant of the added acid; assay type: physicochemical; conditions: in water at 25°C
Procedure: The organic acid preferably has a first acid dissociation constant of preferably 4.0 to 5.0, more preferably 4.1 to 4.8, and further preferably 4.2 to 4.5. […] In the present invention, the term "first acid dissociation constant" indicates an acid dissociation constant in water at 25°C and is a value measured, for example, by acid-base titration, absorption spectroscopy, or capillary electrophoresis.

[2] = Evaluation of solubility of acids in glycerol (visual); assay type: physicochemical; conditions: for Solubility (-): 10 mg of acid in 1,000 mg of glycerol at 25°C, visual, 5 grades
Procedure: The organic acid is preferably soluble in the aerosol former at 25°C. […] When the resulting solution is colorless and transparent or the majority of the organic acid added is invisible due to dissolution, the organic acid is determined as "soluble." Since a solution of a polyol, such as glycerol, is difficult to measure at room temperature due to the high viscosity, it is desirable to observe the solution after appropriately dissolving once at a high temperature, followed by cooling to room temperature.
The evaluation was made by 5 grades from 1 of "no dissolution" to 5 of "complete dissolution." Herein, a grade of 3 or higher was regarded as "soluble."

Row | SMILES | First acid dissociation constant (-) [1] | Solubility (-) [2] | Solubility in glycerol as an aerosol former (in words) ([2]; 25°C)
1 | O=C(O)CCCCC(=O)O [Adipic acid] | 4.42 | – | –
2 | CC(=O)CCC(=O)O [Levulinic acid] | 4.44 | 5 | soluble
3 | CCCCCCCCCCCCCCCCCCC(=O)O [Nonadecanoic acid] | 5.10 | 1 | –
4 | CC(=O)C(=O)O [Pyruvic acid] | 2.50 | 5 | –
